Literature values, collected in patent US20100151018A1, “SUSTAINED-RELEASE LEVETIRACETAM COMPOSITION AND PREPARATION PROCESS” (RD- Pharmagal, priority 2007, published 2010).
≈ marks a conversion by molar mass, not a printed value.

Experiments:
[1] = not given; remark: listed apart in the source

SMILES | plasma half-life (in adults) [h] | bioavailability (oral administration of immediate-release tablets) | solubility in water [1]
CC[C@@H](C(N)=O)N1CCCC1=O [levetiracetam, S-enantiomer of a-ethyl-2-oxo-1-pyrrolidine acetamide] | 7 | approximately 100% | approximately 104.0 g/100 ml
NC(=O)N1c2ccccc2CC(=O)c2ccccc21 [oxcarbazepine] | – | – | 308 µg/mL (≈ 1220 µM)
